Source: patent US10028931B2, “Synergistic compositions for treating microbial infections” (UNIVERSITY OF ROCHESTER, priority 2014, dated 2018)
Values after ≈ are worked out from the molar mass of the structure shown.

tested on: Staphylococcus aureus strain UAMS-1; test: Antimicrobial susceptibility testing (MIC, broth microdilution); type: cell-based; conditions: S. aureus UAMS-1, Mueller Hinton broth, 37° C., 18 hours
Method: The RNase P inhibitors described herein were tested for antimicrobial activity toward Staphylococcus aureus strain UAMS-1. Individual wells of a 96-well microtiter plate were inoculated with ˜1×10^5 colony-forming units (CFU) of the indicated organism, containing two-fold increasing concentrations (from 0 to 256 μg mL^−1) of the indicated antibiotic or putative RnpA inhibitor, and incubated at 37° C. for 18 hours in Mueller Hinton broth. The MIC was defined as the lowest concentration of antibiotic in which there was no visible bacterial growth in the wells. Minimum bactericidal concentration testing was performed by enumerating the bacterial cells in each of the wells containing treatments at and above the MIC.

Row | Compound | MIC [µg/mL]
1 | Cc1ccc(C(=O)NNC(=S)NC(=O)c2ccco2)cc1 [ST5682777] | 16 (≈ 52.7 µM)
2 | O=C(NC(=S)NNC(=O)c1ccccc1O)c1ccco1 [ST5703881] | 16 (≈ 52.4 µM)
3 | O=C(NC(=S)NNC(=O)c1ccccc1O)c1ccco1 [MC-190069] | 64 (≈ 210 µM)

same assay, conditions: Staphylococcus aureus, UAMS1, 18 h, S. aureus UAMS-1, Mueller Hinton broth, 37° C., read-out: MIC

Row | Compound | MIC [µg/mL]
4 | O=C(CCc1ccccc1)NNC(=S)NC(=O)c1ccco1 [MC-190080] | > 128
5 | Cc1ccccc1C(=O)NNC(=S)NC(=O)c1ccco1 [ST5638722] | 64 (≈ 211 µM)
6 | O=C(NC(=S)NNC(=O)c1ccco1)c1cccnc1 [ST5254088] | > 128
7 | CC(C)c1ccc(OCC(=O)NNC(=O)c2ccco2)cc1 [MC-190034] | > 256
8 | CC(C)c1ccc(CCNc2c(NCc3nc4ccccc4[nH]3)c(=O)c2=O)cc1 [MC-190087] | > 128
9 | O=C(NNC(=S)NC(=O)c1ccco1)c1ccc(NC(=O)c2ccccc2)cc1 [ST5524510] | > 128
10 | CC(C)c1ccc(OCC(=O)NNC(=S)NC(=O)c2cnco2)cc1 [MC-190039] | 64 (≈ 177 µM)
11 | O=C(NNC(=S)NC(=O)c1ccco1)c1cnccn1 [ST5641784] | 32 (≈ 110 µM)
12 | O=C(/C=C/c1ccccc1)NC(=S)NNC(=O)c1ccco1 [ST5254083] | 16 (≈ 50.7 µM)
13 | O=C(COc1ccc(Cl)cc1Cl)NNC(=S)NC(=O)c1ccco1 [ST5682846] | 4 (≈ 10.3 µM)
14 | CC(C)c1ccc(OCC(=O)NNC(=O)c2ccsc2)cc1 [MC-190036] | > 256
15 | CC(C)c1ccc(OCC(=O)NNC(=O)c2cccs2)cc1 [MC-190035] | > 256
16 | Cc1ccc(OCc2ccc(C(=O)NNC(=S)NCC(C)C)o2)c(C)c1 [ST5607269] | > 128
17 | O=C(NC(=S)NNC(=O)c1ccco1)c1ccc(F)c(F)c1 [ST5704832] | > 128
18 | CCCCCCCC(=O)NC(=S)NNC(=O)COc1ccc(C(C)CC)cc1 (stereo not shown) [ST5528863] | > 128
19 | O=C(NNC(=S)NC(=O)c1ccco1)c1cccnc1 [ST5254078] | 128 (≈ 441 µM)
20 | O=C(NC(=S)NNC(=O)c1ccc(O)cc1O)c1ccco1 [ST5640720] | 16 (≈ 49.8 µM)
21 | CC(C)c1ccc(OCC(=O)NNC(=S)NC(=O)Cc2ccco2)cc1 [MC-190084] | 16 (≈ 42.6 µM)
22 | CC(C)c1ccc(CCNc2c(NCCc3ccco3)c(=O)c2=O)cc1 [MC-190090] | 256 (≈ 726 µM)
23 | CC(C)c1ccc(OCC(=O)NNC(=S)NC(=O)c2ccoc2)cc1 [MC-190098] | 16 (≈ 44.3 µM)
24 | CCCCC(=O)Nc1ccc(C(=O)NNC(=S)NC(=O)c2ccco2)cc1 [ST5526667] | > 128
25 | CCC(C)c1ccc(OCC(=O)NNC(=S)NC(=O)c2ccc(-c3ccccc3)cc2)cc1 (stereo not shown) [ST5525289] | 64 (≈ 139 µM)

target: T1, RnpA (Staphylococcus aureus, UniProt P0A0H5); test: RnpA mRNA degradation activity assay; type: biochemical; conditions: not given
T1 sequence (P0A0H5 1-117): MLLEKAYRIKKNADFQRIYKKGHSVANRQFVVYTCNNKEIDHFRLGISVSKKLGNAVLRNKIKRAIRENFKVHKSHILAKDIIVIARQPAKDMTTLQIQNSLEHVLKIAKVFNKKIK
Method: The RNase P inhibitors described herein were tested for activity toward RnpA mRNA degradation activity. Either 1 μg of total S. aureus RNA or 1 pmol of in vitro synthesized spa mRNA was incubated with 20 pmol RnpA at 37° C. for 15 to 30 min in a reaction buffer (50 mM Tris-HCl pH 8.0, 2 mM NaCl, 2 mM MgCl2) in the absence or presence of the indicated compound. Reactions were stopped by adding an equal volume of 2×RNA loading dye (95% formamide, 0.025% SDS, 0.025% bromophenol blue, 0.025% xylene cyanol FF, 0.5 mM EDTA), run on a denaturing 1.0% agarose-0.66 M formaldehyde gel and stained with ethidium bromide. RNA substrates and corresponding degradation products were visualized using a FluorChem 5500 system (Alpha Innotech; San Leandro, Calif.). The inhibitory effects of the test compounds were measured using Image J densitometry software (National Institutes of Health; Bethesda, Md.) to quantify the signal intensity of the RNA band(s) in the negative control (RNA alone), positive control (RnpA+RNA+DMSO), and experimental samples (RnpA+RNA+test compound). The percent enzyme inhibition of test compounds was calculated using the following equation: Percent inhibition=[(experimental signal-positive control)/(negative control signal-positive control signal)]*100.

Row | Compound | IC50 [µM]
26 | CC(C)c1ccc(OCC(=O)NNC(=S)NC(=O)c2cnco2)cc1 [MC-190039] | > 500

same assay, conditions: RnpA mRNA degradation, gel densitometry; read-out: RnpA IC50

Row | Compound | IC50 [µM]
27 | Cc1ccccc1C(=O)NNC(=S)NC(=O)c1ccco1 [ST5638722] | > 500
28 | CC(C)c1ccc(OCC(=O)NNC(=O)c2ccco2)cc1 [MC-190034] | > 500
29 | O=C(NNC(=S)NC(=O)c1ccco1)c1cnccn1 [ST5641784] | > 500
30 | O=C(/C=C/c1ccccc1)NC(=S)NNC(=O)c1ccco1 [ST5254083] | 90
31 | Cc1ccc(C(=O)NNC(=S)NC(=O)c2ccco2)cc1 [ST5682777] | > 500
32 | O=C(COc1ccc(Cl)cc1Cl)NNC(=S)NC(=O)c1ccco1 [ST5682846] | > 500
33 | CC(C)c1ccc(OCC(=O)NNC(=O)c2ccsc2)cc1 [MC-190036] | > 500
34 | O=C(NC(=S)NNC(=O)c1ccccc1O)c1ccco1 [ST5703881] | > 500
35 | CC(C)c1ccc(OCC(=O)NNC(=O)c2cccs2)cc1 [MC-190035] | > 500
36 | Cc1ccc(OCc2ccc(C(=O)NNC(=S)NCC(C)C)o2)c(C)c1 [ST5607269] | 150
37 | O=C(NC(=S)NNC(=O)c1ccco1)c1ccc(F)c(F)c1 [ST5704832] | > 500
38 | CCCCCCCC(=O)NC(=S)NNC(=O)COc1ccc(C(C)CC)cc1 (stereo not shown) [ST5528863] | > 500
39 | O=C(NNC(=S)NC(=O)c1ccco1)c1cccnc1 [ST5254078] | > 500
40 | O=C(NC(=S)NNC(=O)c1ccc(O)cc1O)c1ccco1 [ST5640720] | > 500
41 | CC(C)c1ccc(CCNc2c(NCCc3ccco3)c(=O)c2=O)cc1 [MC-190090] | 50
42 | O=C(NC(=S)NNC(=O)c1ccccc1O)c1ccco1 [MC-190069] | > 500
43 | CCCCC(=O)Nc1ccc(C(=O)NNC(=S)NC(=O)c2ccco2)cc1 [ST5526667] | 80
44 | CCC(C)c1ccc(OCC(=O)NNC(=S)NC(=O)c2ccc(-c3ccccc3)cc2)cc1 (stereo not shown) [ST5525289] | 40

target: T2, S. aureus RNase P (RnpA+rnpB) (Staphylococcus aureus, UniProt P0A0H5); test: RNase P activity assay (precursor tRNA processing); type: biochemical; conditions: RNase P IC50, ptRNATyr processing, gel densitometry
T2 sequence (P0A0H5 1-117): T1 sequence (P0A0H5 1-117)
Method: The RNase P inhibitors described herein were tested for activity toward RNase P. S. aureus RNase P activity assays were performed in low salt buffer (50 mM Tris-HCl pH 8.0, 5 mM MgCl2) or in high salt buffer (50 mM Tris-HCl pH 8.0, 100 mM MgCl2, 800 mM NH4Cl). For all reactions, ptRNATyr, tRNATyr, or rnpB RNA species were first denatured by heating to 95° C. for 3 minutes, and then slowly cooling the mixtures to room temperature. RNase P was reconstituted by mixing an equal molar ratio of RnpB and RnpA for 15 min at 37° C. Precursor tRNA processing reactions (20 μL) were performed by mixing 1.25 pmol RNase P (RnpA+rnpB), RnpA, or rnpB with an equal volume of 2× low salt buffer or 2× high salt buffer and 10 pmol ptRNATyr. Mixtures were incubated for 15 min at 37° C. Reactions were stopped by adding 20 μL 2×RNA loading dye (95% formamide, 0.025% SDS, 0.025% bromophenol blue, 0.025% xylene cyanol FF, 0.5 mM EDTA), and 30 μL of each sample was electrophoresed in a 7 M urea/8% polyacrylamide gel and was then stained with ethidium bromide (0.5 μg/ml). Where indicated, reactions were repeated in the presence of the indicated amount of putative RnpA inhibitors or dimethyl sulfoxide (DMSO). A FluorChem 5500 imaging system was used to visualize the RNA, and the relative abundance of the mature tRNATyr band in the positive control (RNase P+DMSO) or in samples containing test compounds was measured using Image J densitometry software (NIH). The percent RNase P activity was then calculated using the following calculation: (test compound tRNATyr signal/positive control tRNATyr signal)*100.

Row | Compound | IC50 [µM]
45 | O=C(COc1ccc(Cl)cc1Cl)NNC(=S)NC(=O)c1ccco1 [ST5682846] | 80

same assay, conditions: ptRNATyr processing, gel densitometry; read-out: RNase P IC50

Row | Compound | IC50 [µM]
46 | Cc1ccccc1C(=O)NNC(=S)NC(=O)c1ccco1 [ST5638722] | 430
47 | O=C(NC(=S)NNC(=O)c1ccco1)c1cccnc1 [ST5254088] | > 500
48 | CC(C)c1ccc(OCC(=O)NNC(=O)c2ccco2)cc1 [MC-190034] | > 500
49 | O=C(NNC(=S)NC(=O)c1ccco1)c1ccc(NC(=O)c2ccccc2)cc1 [ST5524510] | > 500
50 | O=C(NNC(=S)NC(=O)c1ccco1)c1cnccn1 [ST5641784] | > 500
51 | O=C(/C=C/c1ccccc1)NC(=S)NNC(=O)c1ccco1 [ST5254083] | 75
52 | Cc1ccc(C(=O)NNC(=S)NC(=O)c2ccco2)cc1 [ST5682777] | 70
53 | CC(C)c1ccc(OCC(=O)NNC(=O)c2ccsc2)cc1 [MC-190036] | > 500
54 | O=C(NC(=S)NNC(=O)c1ccccc1O)c1ccco1 [ST5703881] | > 500
55 | CC(C)c1ccc(OCC(=O)NNC(=O)c2cccs2)cc1 [MC-190035] | > 500
56 | Cc1ccc(OCc2ccc(C(=O)NNC(=S)NCC(C)C)o2)c(C)c1 [ST5607269] | > 500
57 | O=C(NC(=S)NNC(=O)c1ccco1)c1ccc(F)c(F)c1 [ST5704832] | > 500
58 | CCCCCCCC(=O)NC(=S)NNC(=O)COc1ccc(C(C)CC)cc1 (stereo not shown) [ST5528863] | 490
59 | O=C(NNC(=S)NC(=O)c1ccco1)c1cccnc1 [ST5254078] | > 500
60 | O=C(NC(=S)NNC(=O)c1ccc(O)cc1O)c1ccco1 [ST5640720] | > 500
61 | CC(C)c1ccc(OCC(=O)NNC(=S)NC(=O)c2ccoc2)cc1 [MC-190098] | 150
62 | O=C(NC(=S)NNC(=O)c1ccccc1O)c1ccco1 [MC-190069] | 470
63 | CCCCC(=O)Nc1ccc(C(=O)NNC(=S)NC(=O)c2ccco2)cc1 [ST5526667] | 90
64 | CCC(C)c1ccc(OCC(=O)NNC(=S)NC(=O)c2ccc(-c3ccccc3)cc2)cc1 (stereo not shown) [ST5525289] | > 500
